From BindingDB's records for doi:10.7270/Q2GQ70ZD (n/a, 1994)

Target: T1, Alpha-1B adrenergic receptor (Homo sapiens, UniProt P35368)
T1 sequence (P35368 whole entry): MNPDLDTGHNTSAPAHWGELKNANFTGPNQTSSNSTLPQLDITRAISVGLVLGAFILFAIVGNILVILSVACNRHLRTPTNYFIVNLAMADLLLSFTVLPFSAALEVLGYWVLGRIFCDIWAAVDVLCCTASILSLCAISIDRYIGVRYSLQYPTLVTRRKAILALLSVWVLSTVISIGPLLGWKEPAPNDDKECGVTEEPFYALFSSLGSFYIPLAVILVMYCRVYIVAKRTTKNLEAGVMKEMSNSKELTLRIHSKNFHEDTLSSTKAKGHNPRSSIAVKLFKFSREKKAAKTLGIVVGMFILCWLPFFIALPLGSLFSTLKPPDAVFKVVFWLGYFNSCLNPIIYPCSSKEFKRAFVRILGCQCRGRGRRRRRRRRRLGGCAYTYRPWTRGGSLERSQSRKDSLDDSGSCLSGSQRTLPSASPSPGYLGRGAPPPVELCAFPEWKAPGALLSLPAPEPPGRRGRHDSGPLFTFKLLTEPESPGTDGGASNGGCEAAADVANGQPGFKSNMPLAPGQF
Experiment: Binding affinity towards human Alpha-1B adrenergic receptor by the displacement of [3H]prazosin

Row | Compound | Ki
1 | c1ccc2c(c1)CCCC2NC1=NCCCO1 (stereo unspecified) | 6.76 µM
2 | C1COC(N2CCOCC2)=N1 | 1000 µM
3 | c1ccc2c(c1)CCCC2NC1=NCCO1 (stereo unspecified) | 2.45 µM
4 | CCC[C@H]1CCCCC1NC1=NCCO1 (stereo partly specified) | 3.98 µM
5 | C1COC(NC(C2CC2)C2CC2)=N1 [CHEBI:8862] | 21.4 µM
6 | C1CCCC(NC2=NCCO2)CC1 | 28.2 µM
